{"source": "patent US20240366648A1", "about": "“NAD-AUGMENTATION THERAPY FOR PARKINSON'S DISEASE” (Vestlandets Innovasjonsselskap AS (VIS), priority 2021, published 2024)", "key": {"[1]": {"test_system": "nigrostriatal degeneration or denervation (DAT loss)", "assay": "Follow-up DAT-scan of phase I participants (Example 4)", "type": "in vivo, human", "source_text": "In the study of the present Example 4, […] of the participants from the study of Example 2 (9 receiving placebo and 11 receiving NR) were examined by a second DAT-scan 1-1.5 year after the completion of the study, for entry into the study of Example 3. […] FIG. 15 represents box plots showing the change (delta) of the DAT-scan tracer uptake in the posterior putamen between the second and first examination (delta=scan2−scan1). […] The data is normally distributed (Shapiro-Wilk normality test)."}, "[2]": {"test_system": "NAD metabolome in skeletal muscle", "assay": "Metabolomic analysis (LC-MS) in skeletal muscle biopsies", "type": "in vivo, human", "conditions": "oral NR 1000 mg/day, 30 days", "experimental": "Biological material was collected at both visits, following a minimum 6-hour fasting and within 6 hours after study drug intake for visit 2. Sampling included whole blood, serum, peripheral blood mononuclear cells (PBMCs), cerebrospinal fluid (CSF) and muscle biopsy. Lumbar puncture was performed according to standard clinical procedures to collect 10 ml CSF. Needle biopsy of the vastus lateralis muscle was performed using a Bard Magnum biopsy gun (BD©, United States) and 12G×10 cm biopsy needles. Muscle biopsies were immediately dissected to remove any non-muscle tissue (e.g., fat or fascia) and snap-frozen in liquid nitrogen.\nStandard substances of all the targeted compounds were used to prepare stock standard solutions and these solutions were mixed and diluted to make serially diluted standard solutions in an internal standard solution containing 11 isotope-labeled compounds (NAD-13C5, NADH-d5, nicotinamide riboside-d4, nicotinic-d4 acid, nicotinic acid-d4 riboside, AMP-15N5, ATP-13C10, nicotinamide-d4, 1-methylnicotinamide-d3, adenosine-13C5 and GTP-13C10) in a concentration range of 0.0002 to 20 nmol/mL. Muscle tissues were added with water at 2.5 μL/mg raw material and then homogenized on an MM 400 mixer mill for 1 min twice. Methanol at 7.5 μL/mg raw material was then added and the samples were homogenized for 1 min three times. The samples were then placed at −20° C. for 2 h before centrifugation. 20 μL of the supernatant was mixed with 180 μL of the internal standard solution. The samples were then placed at 5° C. for 1 h and then centrifuged for 5 min at 21,000 g. The clear supernatants were used for LC-MS analyses. For metabolomic analyses in PBMCs, several aliquots of one sample were thawed on ice, centrifuged (10 min, 350×g, 4° C.), resuspended in ice-cold PBS and counted on a countess II cell counter. The equivalent volume of 10 Mio live cells was transferred into a new tube, centrifuged (10 min, 350×g, 4° C.), the supernatant removed, and the pellet immediately frozen on dry ice. Each PBMC sample was made into 75% methanol at a concentration of 50 μL per 1 Mio cells. After cell lysis on a MM 400 mixer mill for 1 min twice, the sample was centrifuged. 20 μL of the clear supernatant was mixed with 180 μL of the internal standard solution and was then used for LC-MS analysis.\nFor UPLC-MRM/MS, 10 μL aliquots of each standard solution and each sample solutions were injected to run LCMRM/MS either on a Waters Acquity UPLC coupled to a Sciex QTRAP 6500 Plus mass spectrometer with (−) ion detection or ESI or on an Agilent 1290 UHPLC system coupled to an Agilent 6495B QQQ mass spectrometer with (+) ion detection. For UPLC-(−) MRM/MS, a reversed-phase C18 LC column (2.1*100 mm, 1.8 μm) was used for LC separation, with the use of a tributylamine-ammonium acetate buffer (solvent A) and acetonitrile (solvent B) as the mobile phase for gradient elution at 50° C. and 0.25 mL/min. For UPLC-(+) MRM/MS, a reversed-phase C18 column (2.1*150 mm, 1.8 μm) was used for LC separation, with the use of hepatofluorobutyrate buffer (solvent A) and methanol (solvent B) as the mobile phase for gradient elution at 50° C. and 0.3 mL/min. Concentrations of individual metabolites detected in each sample were calculated by constructing linear-regression curves of individual metabolites with the analyte-to-internal standard peak area ratios (As/Ai) of standard solutions in each set of LC-MS runs and then by interpolating the calibration curves with the as/Ai values measured from injections of sample solutions in an appropriate concentration range for each compound. Sample preparation and metabolomic analyses were conducted at Creative Proteomics, NY, USA.\nThe between visit change ([visit 2]−[visit 1]) in MDS-UPDRS (total of subsections I-III; and individual subsections I, II and III) was compared between the NR and placebo groups using independent Student's t-test. […]"}}}
{"smiles": "NC(=O)c1ccc[n+]([C@@H]2O[C@H](CO)[C@@H](O)[C@H]2O)c1", "note": "[NR, nicotinamide riboside]", "values": [{"measurement": "progression of the DAT loss between first and second DAT-scan, NR vs placebo group", "setting": "[1]; second scan 1-1.5 year after the study, posterior putamen, t-test p=0.35", "result": "no significant difference"}, {"measurement": "trend in progression of nigrostriatal denervation in NR group", "setting": "[1]; smaller difference between the two examinations, p=0.35", "result": "non-significant trend for decreased progression"}, {"measurement": "Me-2-PY level in muscle tissue after treatment", "setting": "[2]", "result": "strongly elevated"}, {"measurement": "Me-4-PY level in muscle tissue after treatment", "setting": "[2]", "result": "strongly elevated"}, {"measurement": "NAAD level in muscle tissue after treatment", "setting": "[2]", "result": "strongly elevated"}, {"measurement": "Nam N-oxide level in muscle tissue after treatment", "setting": "[2]", "result": "strongly elevated"}, {"measurement": "acetyl-CoA, CoA, SAM and its metabolites, energy compounds such as ATP in muscle", "setting": "[2]", "result": "no significant change"}, {"measurement": "methyl-Nam (Me-Nam) level in muscle tissue after treatment", "setting": "[2]", "result": "strongly elevated"}, {"measurement": "steady state levels of NAD (NAD+ and NADH), NAD precursors and intermediates in muscle", "setting": "[2]", "result": "not significantly changed"}]}
